Experimental data: patent US20040059104A1, “Nucleotide mimics and their prodrugs” (priority 2002, published 2004)
Read-outs that look alike come from different tables or passages of the source.

How the values were obtained:
Escherichia coli = assay: Antimicrobial assay, minimal inhibitory concentration; assay type: cell-based; settings: Escherichia coli, read-out: E. coli MIC
in vitro = settings: human, pH 7.4
CEM cells = assay: Cell uptake procedure (intracellular nucleotide levels by HPLC); assay type: cell-based, Human; settings: 24 hour incubation, limit of detection about 5 pmol/10^6 cells
Protocol: CEM cells were resuspended in RPMI at 1×10^7 cells/mL. The appropriate amount of each compound was added to well and then 0.5 ml of the cells was aliquoted into the appropriate number of wells of a 24-well plate and incubated the cells at 37° C. Cells were harvested after 24 hours of incubation. To harvest cells they were transferred to a microfuge tube and spun for one minute at high speed. The samples were washed in PBS containing 1 mg/ml BSA and re-centrifuged. The PBS was then aspirated and 200 μL of ice-cold 60% methanol was added to extract the nucleotides. The extracts were incubated overnight at −20° C. The next day the samples were spun at high speed in a microfuge for 20 minutes and the supernatant transferred to clean tubes and dried in the speed vac. After drying the samples were resuspended in 50 μl, filtered, and the samples then directly injected onto the HPLC. The nucleotides were analyzed using reverse phase HPLC with ion-pairing agents for separation of the nucleotides. The procedure was adapted from the following paper: Furman, et al., Proc. Natl. Acad. Sci. USA 1986, 83, 8333-8337.
The limit of detection was estimated to be 5 pmol/10^6 cells.

HIV-1RF = assay: Anti-HIV-1 cytoprotection assay in CEM-SS cells; assay type: cell-based; settings: Human immunodeficiency virus 1, 144 h; CEM-SS cells infected with HIV-1RF, MOI approximately 0.01, 6 days, MTS; read-out: CEM-SS IC50 (Anti-HIV Screening)
Protocol: (§1) ollowing paper: Structure-Activity and Cross-Resistance unodeficiency Virus Type 1-Specific ckheit, Jr. et al., Antimicrobial Agents and s were evaluated in CEM-SS cell cultures V-1RF at an MOI of approximately 0.01. At he soluble tetrazolium-based dye MTS viability and quantify compound toxicity of metabolically active cells to yield a soluble analysis of cell viability and compound
Efficacy Evaluation in CEM-SS Cells Anti-HIV-1 Cytoprotection Assay
Cell Preparation—CEM-SS cells were passaged in T-75 flasks prior to use in the antiviral assay. On the day preceding the assay, the cells were split 1:2 to assure they were in an exponential growth phase at the time of infection. Total cell and viability quantification was performed using a hemacytometer and trypan blue exclusion. Cell viability was greater than 95% for the cells to be utilized in the assay. The cells were resuspended at 5×10^4 cells/ml in tissue culture medium and added to the drug-containing microtiter plates in a volume of 50 μl.
Virus Preparation—The virus used for these tests was the lymphocytropic virus strain HIV-1RF. This virus was obtained from the NIH AIDS Research and Reference Reagent Program and was grown in CEM-SS cells for the production of stock virus pools. For each assay, a pre-titered aliquot of virus was removed from the freezer (−80° C.) and allowed to thaw slowly to room temperature in a biological safety cabinet. The virus was resuspended and diluted into tissue culture medium such that the amount of virus added to each well in a volume of 50 μl was the amount determined to give between 85 to 95% cell killing at 6 days post-infection.
(§2) At assay termination, the assay plates were stained with the soluble tetrazolium-based dye MTS (CellTiter Reagent Promega) to determine cell viability and quantify compound toxicity. MTS is metabolized by the mitochondrial enzymes of metabolically active cells to yield a soluble formazan product, allowing the rapid quantitative analysis of cell viability and compound cytotoxicity. […] At termination of the assay, 20 μL of MTS reagent was added per well. The microtiter plates were then incubated 4-6 hrs at 37° C. for the HIV cytoprotection assay; the incubation intervals were chosen based on empirically determined times for optimal dye reduction. Adhesive plate sealers were used in place of the lids, the sealed plate was inverted several times to mix the soluble formazan product and the plate was read spectrophotometrically at 490 nm with a Molecular Devices Vmax plate reader.

[1] = Compound toxicity in CEM-SS cells (MTS staining); assay type: cell-based; settings: human, read-out: CEM-SS TC50
Protocol: as §1, §2

## [BH3-][P+](O)(OCC1OC(n2cc(C)c(=O)[nH]c2=O)CC1N=[N+]=[N-])OP(=O)(O)C(F)(F)P(=O)(O)O (single isomer, unassigned) [Compound 27-isomer 1, 3′-Azido-3′-deoxythymidine 5′-α-P-borano-β,γ-(difluoromethylene)triphosphate]
Escherichia coli; overnight at 37° C., tested 0-200 μg/ml, NA = Not active
  MIC: 60 µg/mL
Escherichia coli; value in brackets beside the μg/ml value
  MIC: 111 µM
In vitro
  half-life at 500 μM: > 48 h
CEM cells; incubation concentration 25 μM
  Intracellular levels of 27: BLD
CEM cells; incubation concentration 50 μM
  Intracellular levels of 27: 5.6 pmol/10^6 cells
CEM cells; incubation concentration 100 μM
  Intracellular levels of 27: 10.6 pmol/10^6 cells
HIV-1RF
  IC50: 1640 nM
[1]
  CC50: > 200000 nM
